Experimental data reported in US20120172375A1, “COMPOUNDS AND METHODS OF PROMOTING OLIGODENDROCYTE PRECURSOR DIFFERENTIATION” (priority 2008, published 2012).

How the values were obtained:
[1] = system: oligodendrocyte precursors; assay: Oligodendrocyte precursor maturation after pre-incubation with PI3K, mTOR or Akt inhibitors (MBP immunostaining); assay type: cell-based; conditions: 48 h treatment; for effect of Akt inhibitor on compound-induced differentiation: Akt 1/2 inhibitor 1 μM added 1 hr before; for effect of PI3K inhibition on compound-induced oligodendrocyte precursor maturation: wortmannin 0.1 μM added 1 hr before
Protocol: Akt signaling has been extensively studied, and activation of phosphatidyl-inositol-3-kinase (PI3K) is generally accepted as a canonical upstream Akt activator. Downstream targets of Akt have also been identified and those include GSK, mTOR, p70SK, ASK amongst many others. In order to determine the relevance of […], signaling in the phosphorylation of Akt induced by compounds A and B and possible downstream targets of phosphorylated Akt, we pre-incubated the cells with inhibitors of PI3K (wortmannin, 0.1 μM), mTOR (rapamycin 0.1 μM) or a direct Akt ½ inhibitor (trifluoroacetate salt hydrate, 1 μM), all added 1 hr before the treatment with compounds A or B.
Cells were immunostained for MBP and after 48 h treatment with compound A or B the cells underwent morphology changes indicative of cell differentiation that included the generation of multiple cell processes and development of membranous structures.

[2] = system: oligodendrocyte progenitors; assay: Primary/secondary screening: oligodendrocyte progenitor morphology changes and Plp-EGFP fluorescence; assay type: cell-based, mouse; design: key to differentiation scale score (cell morphology): 1: bipolar, undifferentiated; 2: bipolar to tripolar, initiated differentiation; 3: multibranched, differentiated cells; 4: multibranched, differentiated cells showing membranous structures; conditions: 10 μM, 48 hr
Protocol: Oligodendrocyte progenitors were generated from embryonic neural progenitors growing in cell aggregates known as neurospheres (Nphs). Nph were prepared from embryos at 14.5 days of gestation obtained from timed pregnant females of either wild type mice or the proteolipid protein-enhanced-green fluorescence protein (Plp-EGFP) transgenic mouse. In brief, after separation of meninges and cerebellum, cerebrum tissue was mechanically triturated with a 1 ml Gilson pipette until total tissue disaggregation was achieved, filtered through a 70 μm cell strainer (Fisher Scientific, Pittsburg, Pa.) and plated in 25 cm^2 plastic culture flasks (2 brains/flask). Nph proliferation media (NPM) was DMEM/F12, B27 neuronal supplement (Gibco, Baltimore, Md.) and 10 ng/ml EGF (Sigma, St. Louis, Mo.). After 48-72 hr, floating Nphs were passaged at a 1:3 ratio in the same medium every 3-4 days. To generate oligodendrocyte progenitors, single cells suspensions were obtained by chemical disgregation with the mouse NeuroCult dissociation kit (StemCell Technologies, Alberta, Canada). The single cell suspension was filtered through a 70 μm cell strainer and plated on 96-well poly-D-Lysine (PDL)-coated plates at a cell density of 1.5×10^4 cells/cm^2. Cells were maintained in NPM supplemented with 10 ng/ml PDGF/bFGF instead of EGF. Bipolar, oligodendrocyte progenitor cells were observed 24 hours after plating. […]
The small molecule library consists of handcrafted drug-like organic molecules with molecular weight in a range of 250-550, dissolved in DMSO at concentration of 5 mg/ml or […]. Their structure and >95% purity have been validated by NMR. […] Oligodendrocyte progenitor differentiation was scored using as 4 scale values as follows: 1: bipolar, undifferentiated; 2: bipolar to tripolar, initiated differentiation; 3: multibranched, differentiated cells; 4: multibranched, differentiated cells showing membranous structures (FIG. 1).
Differentiation induced by selected compounds was further validated by fluorescence microscopy in cells generated from our Plp-EGFP transgenic mouse. Increased fluorescence in treated oligodendrocyte progenitor was indicative of cell maturation and was again scored following the same scale. […] These were analyzed for cell toxicity assays by MTT were yellow 3-(4,5-Dimethylthiazol-2-yl)-2,5-diphenyltetrazolium bromide, a tetrazole (MTT) is reduced to purple formazan in the mitochondria of living cells, showing a solution color change measurable by OD620-590 (Data not shown). Further oligodendrocyte progenitor maturation in response to selected compounds was assessed by induction of myelin protein expression as determined by immunocytochemistry and western blot. […]

Hydrophobicity = assay type: physicochemical
Solubility = assay type: physicochemical

Row | SMILES | effect of Akt inhibitor on compound-induced differentiation [1] | effect of mTOR inhibition on compound-induced oligodendrocyte precursor maturation ([1]; rapamycin 0.1 μM added 1 hr before) | effect of PI3K inhibition on compound-induced oligodendrocyte precursor maturation [1] | differentiation scale score (cell morphology) [2] | hydrophobicity (Hydrophobicity) | solubility (Solubility)
1 | O=[N+]([O-])c1ccc(F)c(NS(=O)(=O)c2ccc(F)cc2)c1 [Compound B, 4-fluoro-N-(2-fluoro-5-nitrophenyl)benzenesulfonamide] | completely blocked | totally avoided | did not block |  |  | 
2 | CCS(=O)(=O)N1CCN(C(=O)COc2ccc(-c3ccccc3)cc2)CC1 [Compound A, 1-[(4-biphenylyloxy)acetyl]-4-(ethylsulfonyl)piperazine] | completely blocked |  | did not block | 4 |  | 
3 | CC(C)N1CCN(C(=O)COc2ccc(-c3ccccc3)cc2)CC1 [Compound A-7, 1-(Biphenyl-4-yloxy)acetyl-4-isopropylpiperazine] |  |  |  |  | high | high
